Experimental data reported in paper PMC12245127, “Cancer Specific CAIX‐Targeting Supramolecular Lysosome‐Targeting Chimeras (Supra‐LYTAC) for Targeted Protein Degradation” (Advanced Science, 2025).

What was measured:
Assay type in all cases: cell-based
HeLa = assay: Endocytosis pathway analysis with inhibitors; settings: inhibitor pre-incubated 30 min (400 mM sucrose, 30 μM EIPA), then 100 μM Py-FFK-Az, 5 μM Py-FFK-Biotin, 400 nM streptavidin-FITC 3 h, flow cytometry, n = 3
Protocol: We next examined the cellular localization of Supra‐LYTAC using CLSM. […] To understand the lysosomal trafficking mechanism, we conducted inhibitor studies. […]
fluorometer (F-7000, Hitachi). The ratio for I1 band and I3 band was plotted to obtain CAC […]
S.1.12. Transmission electron microscopy study. To confirm the peptide self-assembly nanostructures, 50 μM of peptide solution in water was prepared. Then, 8 μL was dropped onto a copper grid. After the droplet is fully dried, it was repeated once more. After that, negative staining was achieved using 2 wt% uranyl acetate solution for 10 min in RT. After washing using DI water, the self-assembly morphology was visualized using JEM-1400 by JEOL and […]
To visualize peptide-protein nanocomplex, streptavidin stock solution was added into the solution consisting of 50 μM peptide solution (mixture of Py-FFK-Az and Py-FFK-Biotin in 20:1 ratio) to obtain 400 nM and 10 μM solutions. Then, TEM sample was prepared with the same protocol of peptide self-assembly visualization.
S.1.13. Circular dichroism spectroscopy. 100 μM peptide solution was initially prepared.
The solution was transferred into quartz cell with 1 mm path length (Hellma), and CD spectrum was recorded using CD spectrometer (J-815, JASCO) under the flow of nitrogen.
S.1.14. FT-IR spectroscopy. 1 mM peptide solution was prepared for FT-IR spectroscopy.
The solution was measured using L1600300 Spectrum TWO LiTa FT-IR spectrometer by […]
S.1.15. Cell culture. HeLa, 4T1, and NIH/3T3 were supplied from Korean Cell Line Bank. […]
After growing for 24 h, Py-FFK-Az, Py-FFK-Biotin, Py-GGK-Az, Py-GGK-Biotin was treated with different concentrations. […] After 4 h incubation, MTT formazan was solubilized by SDS solution, and monitored using SpectraMax M5e Multi Mode Microplate Reader by Molecular Devices.
S.1.17. […] After that, the cells were washed and analyzed using FACSverse (Becton Dickinson And Company).
S.1.18. […] After that, the cells were washed and analyzed using confocal laser scanning microscopy (LSM780 and 880 by ZEISS). […]

PD‐L1 [1] = target: T1, PD‐L1 (Homo sapiens, UniProt Q9NZQ7); assay: Western blot analysis for PD-L1 degradation, HeLa; settings: 24 h, 1:1 ratio (100 μM each)
T1 construct: endogenous in cells; host or cells: HeLa
Protocol: (§1) We next evaluated PD‐L1 degradation using Western blot (WB) analysis. […] Initially, we verified BMS‐conjugated peptides were non‐toxic by MTT assay (Figure S37, Supporting Information). We then assessed PD‐L1 degradation in HeLa cells after 24‐h treatment with 100 µM Py‐FFK‐Az and varying concentrations of Py‐FFK‐BMS. […] To further assess the effect for Py‐FFK‐Az, we conducted WB analysis with 100 µM Py‐FFK‐BMS at varying concentration for Py‐FFK‐Az. […] PD‐L1 degradation was inhibited by co‐treatment with CAIX inhibitor, confirming the role of CAIX‐mediated endocytosis in lysosomal uptake (Figure S39, Supporting Information). To further validate lysosome‐dependent protein degradation, we conducted WB analysis with chloroquine, a lysosomal inhibitor. […] Furthermore, PD‐L1 fluorescence was restored when chloroquine was co‐administered with the 1:1 Py‐FFK‐Az:Py‐FFK‐BMS mixture, confirming lysosomal involvement in PD‐L1 degradation. […]
(§2) μM Py-FFK-Az and 5μM Py-FFK-Biotin was co-incubated with 400 nM streptavidin-FITC. […]
(§3) as counterstaining agent. IF signals were analyzed using confocal laser scanning microscopy […]
(§4) S.1.22. […] Tumor growth was monitored using the digital caliper. We calculated the tumor volume using the formula [volume = (tumor length) × (tumor width)2/2]. […] The tumor size and body weight were measured and […]
(§5) S.1.23. […] All the data are expressed as mean ± standard deviation (SD). […]

PD‐L1 [2] = target: T1, PD‐L1; assay: Immunofluorescence analysis of PD-L1, HeLa; settings: 24 h
Protocol: as §1, §2, §3, §4, §5

T1 sequence (Q9NZQ7 19-290): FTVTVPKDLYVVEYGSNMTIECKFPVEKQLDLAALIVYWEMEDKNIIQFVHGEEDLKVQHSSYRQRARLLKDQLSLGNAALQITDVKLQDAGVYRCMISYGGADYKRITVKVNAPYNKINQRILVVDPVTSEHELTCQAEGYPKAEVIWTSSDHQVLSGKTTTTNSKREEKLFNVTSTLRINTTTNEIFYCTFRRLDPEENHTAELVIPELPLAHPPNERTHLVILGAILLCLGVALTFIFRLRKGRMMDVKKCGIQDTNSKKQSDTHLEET

| Compound | effect of inhibitor on POI uptake by Supra-LYTAC (HeLa) | effect of inhibitor co-treatment on PD-L1 degradation by Py-FFK-Az and Py-FFK-BMS (WB) (PD‐L1 [1]) | PD-L1 immunofluorescence on chloroquine co-administration with 1:1 Py-FFK-Az:Py-FFK-BMS (PD‐L1 [2]) |
| --- | --- | --- | --- |
| CCN(c1nc(N)c(C(=O)NC(=N)N)nc1Cl)C(C)C [EIPA] | no effect |  |  |
| CC(=O)Nc1nnc(S(N)(=O)=O)s1 [acetazolamide] | significantly reduced | inhibited |  |
| CCN(CC)CCCC(C)Nc1ccnc2cc(Cl)ccc12 (stereo not drawn) [chloroquine] |  | significantly reduced PD‐L1 degradation | restored |
| OC[C@H]1O[C@@](CO)(O[C@H]2O[C@H](CO)[C@@H](O)[C@H](O)[C@H]2O)[C@@H](O)[C@@H]1O [sucrose] | substantially reduced |  |  |
